Data from BindingDB's records for patent US20250257059 (Nerio Therapeutics, 2025).

The compounds below were run against T1, Tyrosine-protein phosphatase non-receptor type 2 (Homo sapiens, UniProt P17706) (assay: In vitro enzymatic assay).
T1 sequence (P17706 whole entry): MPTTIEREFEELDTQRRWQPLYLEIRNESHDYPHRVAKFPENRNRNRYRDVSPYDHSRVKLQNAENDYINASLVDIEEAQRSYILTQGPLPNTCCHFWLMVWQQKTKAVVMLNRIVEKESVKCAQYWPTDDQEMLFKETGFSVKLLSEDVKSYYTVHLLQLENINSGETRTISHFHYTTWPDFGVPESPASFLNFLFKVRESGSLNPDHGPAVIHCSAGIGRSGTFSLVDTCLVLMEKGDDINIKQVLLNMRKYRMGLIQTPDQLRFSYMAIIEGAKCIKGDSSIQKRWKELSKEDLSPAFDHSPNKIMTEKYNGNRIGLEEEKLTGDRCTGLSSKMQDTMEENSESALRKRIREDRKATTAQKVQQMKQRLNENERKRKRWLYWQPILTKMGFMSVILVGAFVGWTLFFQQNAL
Procedure: PTPN2 was produced in E. coli as a GST-TEV fusion and the GST was removed by TEV digestion, followed by additional purification to yield full-length PTPN2 (SEQ ID 1). PTPN2 enzyme was diluted in assay buffer (50 mM HEPES pH7.5, 0.2 mM EDTA, 1 mM DTT, 0.02% Brij-35, 0.02% BSA) to a final concentration of 0.5 nM and added to black 384-well non-binding plates (Greiner, 781900). Compounds were subsequently added using a Tecan D300e dispenser. Following a 10 min incubation at room temperature, DiFMUP substrate (ThermoFisher, D22065) was added to a final concentration of 100 μM. Plates were transferred to a SpectraMax plate reader (Molecular Devices) and fluorescence intensity was measured (ex 358, em 455) after a 30 min incubation at room temperature. […] A four-parameter curve fit was used to determine IC50 values from % inhibition data.

IC50 [nM] | Compound
3 | COC1CCN(CCc2cc(O)c(N3CC(=O)NS3(=O)=O)c(F)c2)CC1 [US20250257059, Example 104]
2 | CC1(C)CN(CCc2cc(O)c(N3CC(=O)NS3(=O)=O)c(F)c2)C1 [US20250257059, Example 127]
2 | CC(C)(C)C1CCN(CCc2cc(O)c(N3CC(=O)NS3(=O)=O)c(F)c2)C1 (centres undefined) [US20250257059, Example 111]
1 | COC[C@@H]1CCN(CCc2cc(O)c(N3CC(=O)NS3(=O)=O)c(F)c2)C1 [US20250257059, Example 117]
3 | O=C1CN(c2c(O)cc(CCN3CC(F)C3)cc2F)S(=O)(=O)N1 [US20250257059, Example 136]
2 | O=C1CN(c2c(O)cc(CCN3CCC4(CCCC4)C3)cc2F)S(=O)(=O)N1 [US20250257059, Example 112]
7 | O=C1CN(c2c(O)cc(CCN3CCOCC3)cc2F)S(=O)(=O)N1 [US20250257059, Example 89]
3 | O=C1CN(c2c(O)cc(CCN3CC[C@@H](C(F)(F)F)C3)cc2F)S(=O)(=O)N1 [US20250257059, Example 122]
16 | O=C1CN(c2c(O)cc(CC3CCCCNC3)cc2F)S(=O)(=O)N1 (centres undefined) [US20250257059, Example 55]
1 | CC(C)[C@@H]1CCN(CCc2cc(O)c(N3CC(=O)NS3(=O)=O)c(F)c2)C1 [US20250257059, Example 134]
7 | O=C1CN(c2c(O)cc(CC3CCN(Cc4ccco4)C3)cc2F)S(=O)(=O)N1 (centres undefined) [US20250257059, Example 7]
5 | O=C1CN(c2c(O)cc(CCN3CC(C(F)(F)F)C3)cc2F)S(=O)(=O)N1 [US20250257059, Example 137]
3 | O=C1CN(c2c(O)cc(CCN3CCCC(F)C3)cc2F)S(=O)(=O)N1 (centres undefined) [US20250257059, Example 97]
2 | CC1CN(CCc2cc(O)c(N3CC(=O)NS3(=O)=O)c(F)c2)C1 [US20250257059, Example 140]
5 | O=C1CN(c2c(O)ccc(CC3CCCCN3CCC3CCCC3)c2F)S(=O)(=O)N1 (centres undefined) [US20250257059, Example 80]
2 | CC(C)[C@H]1CCN(CCc2cc(O)c(N3CC(=O)NS3(=O)=O)c(F)c2)C1 [US20250257059, Example 135]
2 | O=C1CN(c2c(O)cc(CCN3Cc4ccccc4C3)cc2F)S(=O)(=O)N1 [US20250257059, Example 128]
7 | CC(C)CCCN1CCCCC1Cc1ccc(O)c(N2CC(=O)NS2(=O)=O)c1F (centres undefined) [US20250257059, Example 79]
2 | O=C1CN(c2c(O)cc(CCN3CCC4(CCOCC4)C3)cc2F)S(=O)(=O)N1 [US20250257059, Example 113]
